The term IC50 denotes the concentration that inhibits the measured activity by half. For orientation: Ki means a dissociation constant, usually derived from enzyme kinetics or from competition with a known ligand. One may read the Kd as the free concentration of one partner at which half of the binding sites on the other are occupied at equilibrium, for simple one-to-one binding.

The text below walks through data of publication PMC6295574, “Molecular and Functional Characterization of Odorant Binding Protein 7 From the Oriental Fruit Moth Grapholita molesta (Busck) (Lepidoptera: Tortricidae)” (Frontiers in Physiology, 2018).

“Also recorded” adds a separate entry of the source. Like-named read-outs stand apart in the source and are kept apart here.

Assay [1] addresses T1, rGmolOBP7 (recombinant GmolOBP7) (Grapholita molesta, UniProt A0A2R4SBC1). Description: biochemical. Type of assay: binding. Conditions: for binding to rGmolOBP7 (in words): competitive binding, 1-NPN probe. Here is the method: (§1) Fluorescence intensity was detected on a spectrophotofluorometer (F-4500, Hitachi, Japan) at room temperature using a quartz cuvette with a 1 cm light path. The silt width of excitation and emissions were all 10 nm. The fluorescence probe 1-NPN was excited at 337 nm and the emission spectra were recorded between 370 and 550 nm. Four sex pheromone components and 31 volatiles, derived from peach shoots and pear fruits, were selected for binding assays (Table 2). The probe 1-NPN and tested ligands were all dissolved in spectrophotometric-grade methanol to obtain a 1 mM stock solution.
The corresponding florescence intensity values were collected as three independent measurements. The binding constant (K1−NPN) of 1-NPN to rGmolOBP7 was calculated using GraphPad Prism 5 software (GraphPad Software, Inc.) via nonlinear regression for a unique site of binding.

In assay [2] the test system is Grapholita molesta antennae. Description: EAG responses of GmolOBP7-dsRNA-injected moths to stimulants. Conditions: stimulant 10 mg/mL in liquid paraffin; for EAG response of dsRNA-treated moths vs non-injected control: male and female moths, 1-day-old; for EAG response of dsGmolOBP7-injected male moths vs dsGFP-injected and non-injected controls: 1-day-old males. Here is the method:
Based on the expression patterns observed at different insect stages, 5-day-old G. molesta pupae (later-pupae) were selected to receive a dsRNA microinjection. The conjunctivum between the prothorax and mesothorax, the conjunctivum between the mesothorax and metathorax and the conjunctivum between the thorax and abdomen were initially selected as putative injection sites. Then, 39, 69, and 138 nL of RNase-free H2O were injected into different conjunctiva, respectively. A total of 69 nL (approximately 241.5 ng dsRNA) of dsGmolOBP7 or dsGFP was injected into the appropriate injection sites of each 5-day-old pupa, by using a PL1-100 Pico-Injector (Harvard Apparatus, Holliston, MA, USA) operated by an MP-255 Micromanipulator (Sutter, Novato, CA, USA). Each type of dsRNA was injected into 600 male and 600 female moths. The heads (with antenna) of 1-, 2-, 3-, and 4 day-old adults were dissected and immediately stored at −80°C prior to use. The total RNA and first-strand cDNA were obtained in accordance with previous methods. The specimens were used for qRT-PCR analysis to test the reduction in GmolOBP7 transcription. Experiments were performed with three biological replicates and three technical replicates.
EAG responses of dsRNA-injected (including dsGmolOBP7 and dsGFP) moths and non-injected controls, to sex pheromones and host plant volatiles were detected using Electroantennography. All stimulants were diluted with liquid paraffin to the final concentration of 10 mg/mL. Liquid paraffin and cis-3-hexenyl acetate were used as the blank and reference control, respectively. Both ends of adult antennae were cut and blocked with a drop of Spectra® 360 Electrode Gel (Parker Laboratories, Fairfield, USA). The basal section was connected to the reference electrode while the distal end was linked to the recording electrode. A filtered humidified air stream was delivered by a Syntech stimulus controller (CS55 model, Syntech, Germany) at a constant flow rate of 50 cm/s, and the time of stimuli flow was 0.5 s. Filter paper strips (0.6 cm × 4.5 cm) were dripped with 15 μL of chemical solution as a stimulus source and inserted into a 1.5 mL micropipet tip. A set of stimulants consisted of four sex pheromones and five host-plant volatiles which can be strongly bound with rGmolOBP7. Each antenna measured the group of randomly arranged stimulants described above. The antennae were stimulated one time with liquid paraffin and cis-3-hexenyl acetate and dissolved in solvent, before and after each group stimulation, in order to ensure the tested antenna were activated and the connecting pipe was not contaminated by stimulants. Recordings per stimulant were taken and the antennal responses were recorded. Eight male and female antennae were measured for each stimulant. The paired t-test was used to determine whether the difference in EAG values were significant between the dsRNA injected moths (dsGmolOBP7 and dsGFP) and the non-injected control. All the data were analyzed using SPSS 18.0 software (SPSS Inc., Chicago, IL, USA).

The target in assay [3] is T1, rGmolOBP7 (recombinant GmolOBP7). The experiment in a line: Binding of fluorescence probe 1-NPN to rGmolOBP7 (binding curve, Scatchard plot). Conditions: 2 μM protein in 20 mM Tris-HCl pH 7.4, 1-NPN up to 18 μM; read-out: dissociation constant (Kd) of 1-NPN. Here is the method: as §1, with “solution. The binding affinity of rGmolOBP7 with 1-NPN was measured by adding aliquots of 1-NPN to a 2 μM protein solution (diluted with 20 mM Tris-HCl pH 7.4) to final concentrations of 0 to 18 μM.” for “solution.”
The corresponding florescence intensity values were collected as three independent measurements. The binding constant (K1−NPN) of 1-NPN to rGmolOBP7 was calculated using GraphPad Prism 5 software (GraphPad Software, Inc.) via nonlinear regression for a unique site of binding. The dissociation constant (Ki) of each ligands competitive binding to rGmolOBP7, were calculated from the corresponding IC50, by using the equation Ki = [IC50]/(1+[1-NPN]/K1−NPN), where [1-NPN] is the free concentration of 1-NPN, and K1−NPN is the dissociation constant of the complex protein/1-NPN.

Assay [4] has as its system male antennae of G. molesta. The arrangement: method as in Cardé et al., 1975, 1979. Conditions: ref Cardé et al., 1975, 1979; cited from earlier work.
The mark [5] stands for this setting: 2 μM rGmolOBP7 and 2 μM 1-NPN, 20 mM Tris-HCl pH 7.4, room temperature, three independent measurements, read-out: IC50.
[6] abbreviates: calculated from IC50 by Ki = [IC50]/(1+[1-NPN]/K1-NPN), read-out: Ki.

T1 sequence (A0A2R4SBC1 entry or part of it): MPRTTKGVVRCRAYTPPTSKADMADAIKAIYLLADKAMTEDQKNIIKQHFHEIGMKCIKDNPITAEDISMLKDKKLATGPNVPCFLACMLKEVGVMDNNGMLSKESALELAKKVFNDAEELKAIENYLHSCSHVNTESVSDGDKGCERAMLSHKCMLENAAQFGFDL

On to `CCC/C=C/CCCCCCCOC(C)=O` [(E)-8-dodecenyl acetate], for which, in assay [1] (setting [5]), the IC50 was over 35 µM. The Ki in assay [1] (setting [6]) was over 35 µM. Also, the “binding to rGmolOBP7 (in words)” value in assay [1] was “did not bind”. Moreover, in assay [2], the “EAG response of dsRNA-treated moths vs non-injected control” value (shortened to “EAG response … vs non-injected control”) is on record as “not significantly different”.
`C=C1CC/C=C(\C)CC[C@@H]2[C@@H]1CC2(C)C` [β-Caryophyllene]: in assay [1], the IC50 was over 35 µM and the Ki is over 35 µM.
Turning to `CC/C=C\CCO` [(Z)-3-Hexen-1-ol], in assay [1], the IC50 was 17.6 ± 0.52 µM and the Ki came to 12.3 µM.
In the case of `CCCCCCCCCCCCCCO` [1-Tetradecanol], in assay [1], the IC50 is over 35 µM and the inhibition constant Ki is over 35 µM.
With `O=Cc1ccccc1` [Benzaldehyde], in assay [1], the IC50 came out at 20.2 ± 0.27 µM and the inhibition constant Ki was found to be 14.1 µM.
`CCCCCC(=O)OCCCC` [Butyl hexanoate]: in assay [1] (setting [5]), the IC50 amounted to 24.4 ± 0.77 µM. The Ki in assay [1] (setting [6]) was 17 µM.
The matching figures for `C=CC(C)(O)CCC=C(C)CCC=C(C)C` (mixture of isomers) [Nerolidol]: over 35 µM and over 35 µM.
Consider `CCCCCCO` [1-Hexanol], for which, in assay [1], the IC50 was 24.9 ± 1.28 µM. Further, in assay [1] (setting [6]), the Ki was 17.4 µM.
In the case of `c1ccc(Nc2cccc3ccccc23)cc1` [1-NPN, N-phenyl-1-naphthylamine], the Kd in assay [3] is 2.3 µM.
As for `CCCCCCCCCCCCCCCC(=O)OC` [Methyl palmitate], in assay [1] (setting [5]), the IC50 was over 35 µM. Besides, the Ki in assay [1] (setting [6]) was over 35 µM.
On to `CCCCCCCCCCCCCCCCO` [1-Hexadecanol], for which the IC50 in assay [1] (setting [5]) was over 35 µM. In addition, the Ki in assay [1] (setting [6]) is over 35 µM.
As to `C=C/C(C)=C/CCC(=C)C` [α-Ocimene], in assay [1] (setting [5]), the IC50 was 11.1 ± 0.2 µM. For the same molecule, in assay [1] (setting [6]), the Ki was 7.75 µM. The “EAG response … vs non-injected control” value in assay [2] is reported as “not significantly different”.
Turning to `CCCCCCCCCC=O` [Decanal], the IC50 in assay [1] (setting [5]) was 18.2 ± 1.27 µM. In assay [1] (setting [6]), the Ki was 12.7 µM.
As to `C=C1[C@@H]2CC[C@@H](C2)C1(C)C` [(-)-Camphene], in assay [1] (setting [5]), the IC50 was over 35 µM. The Ki in assay [1] (setting [6]) was over 35 µM.
Regarding `CCCCCCCCCCCCO` [1-Dodecanol], the half-maximal inhibitory concentration (IC50) in assay [1] (setting [5]) was 10.7 ± 0.85 µM. The inhibition constant Ki in assay [1] (setting [6]) is 7.48 µM. For the same molecule, the “EAG response of dsGmolOBP7-injected male moths vs dsGFP-injected and non-injected controls” value in assay [2] (15 μL) is listed as “significantly reduced”; in assay [2] (15 μL, listed as 12:OH) it was “significantly decreased”. Also, the “EAG response of male antennae” value in assay [4] is “weak EAG response”.
Turning to `CCCCCCCCCCO` [1-Decanol], in assay [1], the IC50 was over 35 µM and the Ki is over 35 µM.
For `CCCCCCCCCCCCCC(=O)OC` [Methyl myristate], in assay [1] (setting [5]), the IC50 is over 35 µM. For the same molecule, the Ki in assay [1] (setting [6]) was over 35 µM.
For `CCCCOC(C)=O` [Butyl acetate], in assay [1], the IC50 stood at 18.1 ± 1.57 µM and the Ki amounted to 12.6 µM.
Turning to `CCCCC/C=C\C=C\C(=O)OCC` [Pear ester, Ethyl (E, Z)-2,4-decadienate], the IC50 in assay [1] (setting [5]) amounted to 3.62 ± 0.25 µM. Further, the Ki in assay [1] (setting [6]) was 2.52 µM. Further, the “EAG response of dsGmolOBP7-injected female moths vs dsGFP-injected and non-injected controls” value in assay [2] (1-day-old females, 15 μL) was “significantly reduced; also recorded: significantly decreased”. Besides, the “EAG response of dsGmolOBP7-injected male moths vs dsGFP-injected and non-injected controls” value in assay [2] (15 μL) is reported as “significantly reduced; also recorded: significantly decreased”.
On to `N#Cc1ccccc1` [Benzonitrile], for which, in assay [1], the half-inhibitory concentration (IC50) is 17.9 ± 1.29 µM and the Ki is 12.5 µM.
The matching figures for `C=CC(C)(O)CCC=C(C)C` (stereo not drawn) [Linalool]: 21.7 ± 1.11 µM and 15.1 µM.
For `CCCCCC=O` [Hexanal], in assay [1], the half-inhibitory concentration (IC50) came to 27.4 ± 1.59 µM and the Ki turned out to be 19.1 µM.
The matching figures for `CCC/C=C/C=O` [(E)-2-Hexenal]: 24.4 ± 1.53 µM and 17 µM.
Regarding `CCCCCCC=O` [Heptanal], the IC50 in assay [1] was found to be 15.7 ± 0.64 µM. In assay [1] (setting [6]), the Ki is 10.9 µM.
With `CC/C=C\CC1C(=O)CCC1CC(=O)OC` (stereo not drawn) [Methyl jasmonate], the IC50 in assay [1] (setting [5]) is 18.7 ± 0.22 µM. Moreover, the Ki in assay [1] (setting [6]) was 13 µM.
The corresponding values for `CCC(C)=CCCC(C)=CC#N` [Lemonile] are over 35 µM and over 35 µM.
`CCCCCCCCCCCC=O` [Lauraldehyde]: in assay [1] (setting [5]), the IC50 is 6.18 ± 0.43 µM. For the same molecule, in assay [1] (setting [6]), the inhibitory constant (Ki) is 4.31 µM. Besides, the “EAG response … vs non-injected control” value in assay [2] is recorded as “not significantly different”.
In the case of `CCCCCCCCCCCCCC=O` [Tetradecanal], the IC50 in assay [1] (setting [5]) is over 35 µM. Moreover, the Ki in assay [1] (setting [6]) is over 35 µM.
In the case of `CC/C=C\CCOC(C)=O` [(Z)-3-Hexenyl acetate], in assay [1] (setting [5]), the 50% inhibitory concentration (IC50) was 19.6 ± 0.27 µM. Moreover, in assay [1] (setting [6]), the Ki is 13.7 µM. Also, the “EAG response … vs non-injected control” value in assay [2] is “not significantly different”.
`COC(=O)c1ccccc1O` [Methyl salicylate]: in assay [1], the IC50 was found to be 14.1 ± 0.22 µM and the Ki worked out at 9.81 µM.
As to `CCCCOC(=O)CCC` [Butyl butyrate], the half-inhibitory concentration (IC50) in assay [1] (setting [5]) is 16.3 ± 1.71 µM. In addition, the Ki in assay [1] (setting [6]) was 11.3 µM.
The matching figures for `CCCCCCCCC=O` [Nonanal]: 28.6 ± 3.38 µM and 19.9 µM.
For `CCC/C=C\CCCCCCCOC(C)=O` [(Z)-8-dodecenyl acetate], the “binding to rGmolOBP7 (in words)” value in assay [1] is given as “did not bind”. For the same molecule, the “EAG response … vs non-injected control” value in assay [2] is “not significantly different”.
With `CCC/C=C\CCCCCCCO` [(Z)-8-dodecenyl alcohol], in assay [1] (setting [5]), the 50% inhibitory concentration (IC50) is over 35 µM. Further, in assay [1] (setting [6]), the Ki is over 35 µM. Moreover, the “binding to rGmolOBP7 (in words)” value in assay [1] is recorded as “did not bind”. For the same molecule, in assay [2], the “EAG response … vs non-injected control” value was “not significantly different”.
For the molecule `OCc1ccccc1` [Benzyl alcohol], in assay [1], the IC50 is over 35 µM and the Ki is over 35 µM.
As for `CC1=CCC2CC1C2(C)C` (stereo not drawn) [α-Pinene], in assay [1], the IC50 was found to be 17.1 ± 1.2 µM and the Ki came out at 11.9 µM. In assay [2], the “EAG response … vs non-injected control” value is reported as “not significantly different”.
